# Marks after values point to notes of the source that are not given here.
# How the values were obtained:
# [1] = ABTS•+ radical cation decolorization assay; details: 16 min reaction
# Procedure: The experiments were carried out using a slightly modified 2,2’-azinobis (3-ethylbenzothiazoline-6-sulfonic acid) diammonium salt (ABTS, Sigma-Aldrich Chemie, Steinheim, Germany) decolorization assay. Stock solution of ABTS (2 mM) was prepared by dissolving in 50 mL of phosphate buffered saline (PBS) obtained by dissolving 0.27 g of KH2PO4 (Jansen Chimica, Beerse, Belgium), 1.42 g of Na2HPO4, 8.18 g of NaCl, and 0.15 g of KCl (Merck, Darmstadt, Germany) in 1 L of distilled water. The pH was adjusted to 7.4 using NaOH solution. The ABTS^•+ was produced by reacting 50 mL of ABTS stock solution with 200 μL of K2S2O8 solution. The ABTS^•+ solution was diluted with PBS before measurements to obtain the absorbance of 0.800 ± 0.030 at 734 nm. 5,8-DHC was dissolved in PBS at the concentrations of 0.0025, 0.005, 0.01, 0.025 and 0.05% before the reaction. A 3 mL aliquot of ABTS^•+ solution was mixed with 30 μL of 5,8-DHC solution in the 1 cm path length quartz cuvette. The absorbance was read at ambient temperature after 16 min. PBS solution was used as a blank. All determinations were carried out in triplicate. Radical scavenging capacity was expressed as in DPPH^• scavenging assay.
# human lymphocytes [2] = experiment: Sister chromatid exchanges and replication index in human lymphocyte cultures in vitro; assay type: cell-based
# Procedure: (§1) Blood samples were taken from two healthy female volunteers (donor A) and (donor B). Whole peripheral blood was grown in HEPES-buffered RPMI 1640 medium supplemented with 12% heat-inactivated newborn calf serum, 7.8 μg/mL phytohemagglutinin P, 50 μg/mL gentamycin, 10 μg/mL 5-bromo-2'-deoxyuridine. All reagents used for the cell culture were purchased from Sigma-Aldrich Chemical Co. (St. Louis, MO, USA). Cell cultures were incubated at 37 °C for 72 h. Treatment with test compounds was carried out 48 h after culture initiation and lasted for the period of 24 h. Dose range of 5,8-DHC (10 to 40 µg/mL) was based on pilot experiments (data not shown). As whole blood cultures display many properties common with the liver microsomal cytochrome P450 system, no external metabolising enzymes were added. 5,8-DHC was dissolved in ethanol and then diluted with RPMI 1640 medium to the desired concentration. Ethanol in a final concentration of 7.5µL/mL was used as a solvent control. […] Working solutions were made just before treatment. Two parallel cultures were used for each concentration of the compound tested. Two cultures were left untreated and served as a blank control. Methyl methanesulfonate (MMS) in a final concentration of 0.02 μL/mL was used as a positive control. The cultures were exposed to colchicine at a final concentration of 0.6 μg/mL for the last 3 h of incubation. The cells were harvested, hypotonically swollen in 0.075 M KCl and fixed in methanol: acetic acid (3:1). Air-dried slides were differentially stained by fluorescence plus Giemsa technique as has been described previously. Briefly, the slides were stained for 10 min. with 10 μg/mL of Hoechst 33258 dye (dissolved in 0.07 M Soerensen’s buffer, pH 6.8). Then the slides were rinsed, mounted with citrate buffer (pH 8.5), covered with cover slips and exposed to UV light (400 W mercury lamp at a distance of 15 cm) for 6–7 min. Slides were then rinsed and stained for 3–4 min. with 5% Giemsa. Cytogenetic analysis was performed on coded slides. No less than 100 first-mitotic division metaphases per culture were analysed for CAs, and no less than 50 second-division metaphases for SCEs.
# Cell replicative kinetics were determined by means of a replicative index (RI = [M1 + 2M2 + 3M3]/N, where M1, M2, M3 are the numbers of cells that had undergone one, two or three cycles of replication, and N is a total number of cells scored). 300 cells were scored to determine RI
# human lymphocytes [3] = experiment: Chromosome aberrations in human lymphocyte cultures in vitro; assay type: cell-based; details: for CA per 100 cells (±S.E.M.): 24 h treatment, pooled two donors
# Procedure: as §1
# [4] = Total phenolic compounds (TPC), Folin-Ciocalteu method
# Procedure: The content of TPC was determined by the Folin–Ciocalteu method. Calibration curve was prepared by using 1 mL reference gallic acid solutions in ethanol (0.025, 0.075, 0.100, 0.175 and 0.350 mg/mL), which were mixed with 5 mL of a standard Folin-Ciocalteu reagent and diluted with distilled water (1:10) and 4 mL of 7.5% sodium carbonate solution in distilled water. The absorption was read after 30 min at 765 nm. The concentration of TPC was expressed in mg of gallic acid equivalents (GAE) per 1 g. The TPC was calculated by the following formula: C = c × V/m (2) where C is the concentration of gallic acid, determined form the calibration curve (mg/mL); V is the volume of 5,8-DHC solution (100 mL); m is the weight of 5,8-DHC (g).
smiles,measurement,setting,value
"O=c1ccc2c(O)ccc(O)c2o1 [5,8-DHC, 5,8-Dihydroxycoumarin]",IC50 in ABTS•+ reaction,[1],0.028%
same,ratio of regression coefficients donor A / donor B,human lymphocytes [2],2.6 times
same,RI ± S.E.M,"human lymphocytes [2]; Donor A, 10 µg/mL",2.70 ± 0.04
same,SCE/ cell ± S.E.M.,"human lymphocytes [2]; Donor A, 10 µg/mL",10.2 ± 0.5 SCE/cell
same,RI ± S.E.M,"human lymphocytes [2]; Donor A, 15 µg/mL",2.74 ± 0.31
same,SCE/ cell ± S.E.M.,"human lymphocytes [2]; Donor A, 15 µg/mL",12.3 ± 0.6 ^b SCE/cell
same,RI ± S.E.M,"human lymphocytes [2]; Donor A, 20 µg/mL",2.65 ± 0.04 ^b
same,SCE/ cell ± S.E.M.,"human lymphocytes [2]; Donor A, 20 µg/mL",12.7 ± 0.7 ^b SCE/cell
same,RI ± S.E.M,"human lymphocytes [2]; Donor A, 25 µg/mL",2.66 ± 0.04 ^b
same,SCE/ cell ± S.E.M.,"human lymphocytes [2]; Donor A, 25 µg/mL",13.6 ± 0.6 ^b SCE/cell
same,RI ± S.E.M,"human lymphocytes [2]; Donor A, 30 µg/mL",2.55 ± 0.05 ^b
same,SCE/ cell ± S.E.M.,"human lymphocytes [2]; Donor A, 30 µg/mL",13.9 ± 0.6 ^b SCE/cell
same,RI ± S.E.M,"human lymphocytes [2]; Donor A, 35 µg/mL",2.51 ± 0.05 ^b
same,SCE/ cell ± S.E.M.,"human lymphocytes [2]; Donor A, 35 µg/mL",15.0 ± 0.8 ^b SCE/cell
same,RI ± S.E.M,"human lymphocytes [2]; Donor A, 40 µg/mL",2.62 ± 0.04 ^b
same,SCE/ cell ± S.E.M.,"human lymphocytes [2]; Donor A, 40 µg/mL",19.7 ± 1.5 ^b SCE/cell
same,RI ± S.E.M,"human lymphocytes [2]; Donor B, 10 µg/mL",2.22 ± 0.05 ^b
same,SCE/ cell ± S.E.M.,"human lymphocytes [2]; Donor B, 10 µg/mL",10.1 ± 0.5 SCE/cell
same,RI ± S.E.M,"human lymphocytes [2]; Donor B, 15 µg/mL",2.35 ± 0.05
same,SCE/ cell ± S.E.M.,"human lymphocytes [2]; Donor B, 15 µg/mL",10.6 ± 0.5 SCE/cell
same,RI ± S.E.M,"human lymphocytes [2]; Donor B, 20 µg/mL",2.49 ± 0.05
same,SCE/ cell ± S.E.M.,"human lymphocytes [2]; Donor B, 20 µg/mL",10.3 ± 0.4 SCE/cell
same,RI ± S.E.M,"human lymphocytes [2]; Donor B, 25 µg/mL",2.31 ± 0.05 ^b
same,SCE/ cell ± S.E.M.,"human lymphocytes [2]; Donor B, 25 µg/mL",9.9 ± 0.5 SCE/cell
same,RI ± S.E.M,"human lymphocytes [2]; Donor B, 30 µg/mL",2.31 ± 0.06 ^b
same,SCE/ cell ± S.E.M.,"human lymphocytes [2]; Donor B, 30 µg/mL",11.8 ± 0.5 ^b SCE/cell
same,RI ± S.E.M,"human lymphocytes [2]; Donor B, 35 µg/mL",2.17 ± 0.06 ^b
same,SCE/ cell ± S.E.M.,"human lymphocytes [2]; Donor B, 35 µg/mL",11.5 ± 0.6 ^b SCE/cell
same,RI ± S.E.M,"human lymphocytes [2]; Donor B, 40 µg/mL",2.07 ± 0.06 ^b
same,SCE/ cell ± S.E.M.,"human lymphocytes [2]; Donor B, 40 µg/mL",13.3 ± 0.6 ^b SCE/cell
same,dose giving statistically significant increase in the frequency of SCEs,human lymphocytes [2]; donor A,15 µg/mL
same,regression coefficient of SCE dose-response relationship,human lymphocytes [2]; donor A,1.15
same,dose giving statistically significant increase in the frequency of SCEs,human lymphocytes [2]; donor B,≥ 30 µg/mL
same,regression coefficient of SCE dose-response relationship,human lymphocytes [2]; donor B,0.44
same,concentration consistently inhibiting cell replicative kinetics,human lymphocytes [2]; lymphocytes of both donors,higher than 25 μg/mL
same,CA per 100 cells (±S.E.M.),human lymphocytes [3]; 10 µg/mL,1.5 ± 0.9 per 100 cells
same,CA per 100 cells (±S.E.M.),human lymphocytes [3]; 15 µg/mL,3.0 ± 1.2 per 100 cells
same,CA per 100 cells (±S.E.M.),human lymphocytes [3]; 20 µg/mL,3.5 ± 1.3 per 100 cells
same,CA per 100 cells (±S.E.M.),human lymphocytes [3]; 25 µg/mL,6.5 ± 1.7 per 100 cells
same,CA per 100 cells (±S.E.M.),human lymphocytes [3]; 30 µg/mL,7.0 ± 1.8 per 100 cells
same,CA per 100 cells (±S.E.M.),human lymphocytes [3]; 35 µg/mL,7.0 ± 1.8 per 100 cells
same,CA per 100 cells (±S.E.M.),human lymphocytes [3]; 40 µg/mL,9.5 ± 2.1 ^b per 100 cells
same,concentration giving statistically significant increase of CAs,human lymphocytes [3]; highest concentration only,40000 ng/mL
same,content of total phenols (TPC),[4],581.0 ± 0.0 mg gallic acid equivalents (GAE) in 1 g
